Laboratory results as given in ChEMBL document CHEMBL1201862, “PubChem BioAssay data set” (2004).
Calls of active or inactive are those of the source.

What was measured:
[1] = NIH-3T3 fibroblast cytotoxicity, dose response, cytotoxicity control, cell-based, fluorescence, Alamar Blue, secondary assay (AID 2327); format: functional;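 note: NIH-3T3 mouse fibroblasts cultured with fluconazole at 8 µg/mL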
[2] = C. albicans growth with fluconazole, confirmation, fluorescence, retest (AID 2467); format: functional, cell-based
[3] = target: T1, Serine/threonine-protein phosphatase (Candida dubliniensis (strain CD36 / CBS 7987 / NCPF 3949 / NRRLY-17841) (Yeast), UniProt B9W6M3); assay: calcineurin pathway inhibitors in yeast reporter, dose response, S. cerevisiae, CDRE-lacZ, luminescence, secondary (AID 2388); format: functional, cell-based;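 note: yeast reporter cells carrying a calcineurin-responsive lacZ construct stimulated with calcium chloride; luminescent beta-galactosidase reporter signal in whole cells rather than isolated phosphatase activity; potency for inhibition where a drop in reporter signal means calcineurin blockade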
T1 sequence (B9W6M3 whole entry): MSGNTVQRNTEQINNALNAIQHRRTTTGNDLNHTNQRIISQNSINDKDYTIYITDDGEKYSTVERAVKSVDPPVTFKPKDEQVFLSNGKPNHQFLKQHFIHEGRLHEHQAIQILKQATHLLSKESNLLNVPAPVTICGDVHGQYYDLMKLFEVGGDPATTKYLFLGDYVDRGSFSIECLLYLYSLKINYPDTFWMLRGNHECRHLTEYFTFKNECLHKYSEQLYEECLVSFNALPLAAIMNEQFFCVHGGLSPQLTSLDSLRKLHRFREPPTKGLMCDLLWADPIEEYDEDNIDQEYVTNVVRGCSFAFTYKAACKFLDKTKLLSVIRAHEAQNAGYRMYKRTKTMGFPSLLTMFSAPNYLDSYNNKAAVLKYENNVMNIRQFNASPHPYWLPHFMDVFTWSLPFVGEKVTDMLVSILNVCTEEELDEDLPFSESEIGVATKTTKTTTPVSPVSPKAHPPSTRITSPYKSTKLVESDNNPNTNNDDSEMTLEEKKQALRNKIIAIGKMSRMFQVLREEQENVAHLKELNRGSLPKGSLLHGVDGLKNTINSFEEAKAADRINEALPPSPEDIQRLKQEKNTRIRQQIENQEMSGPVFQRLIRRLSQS

[4] = test system: Candida albicans; assay: growth inhibition of resistant C. albicans, dose response, CaCi-8, fluconazole, Alamar Blue, dry powder (AID 488807); format: functional, organism-based
[5] = target: ATP-dependent molecular chaperone HSP82 (Candida albicans (strain WO-1) (Yeast), UniProt C4YTQ8); assay: loss of DOC-induced GRE-beta-galactosidase reporter signal, dose response, Hsp90 inhibitor project, S. cerevisiae, luminescence (AID 2400); format: functional, cell-based;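 note: beta-galactosidase luminescence from glucocorticoid response element reporter as proxy for Hsp90 function; inhibitor potency where signal loss means Hsp90 inhibition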
Sequence of ATP-dependent molecular chaperone HSP82 (C4YTQ8 whole entry): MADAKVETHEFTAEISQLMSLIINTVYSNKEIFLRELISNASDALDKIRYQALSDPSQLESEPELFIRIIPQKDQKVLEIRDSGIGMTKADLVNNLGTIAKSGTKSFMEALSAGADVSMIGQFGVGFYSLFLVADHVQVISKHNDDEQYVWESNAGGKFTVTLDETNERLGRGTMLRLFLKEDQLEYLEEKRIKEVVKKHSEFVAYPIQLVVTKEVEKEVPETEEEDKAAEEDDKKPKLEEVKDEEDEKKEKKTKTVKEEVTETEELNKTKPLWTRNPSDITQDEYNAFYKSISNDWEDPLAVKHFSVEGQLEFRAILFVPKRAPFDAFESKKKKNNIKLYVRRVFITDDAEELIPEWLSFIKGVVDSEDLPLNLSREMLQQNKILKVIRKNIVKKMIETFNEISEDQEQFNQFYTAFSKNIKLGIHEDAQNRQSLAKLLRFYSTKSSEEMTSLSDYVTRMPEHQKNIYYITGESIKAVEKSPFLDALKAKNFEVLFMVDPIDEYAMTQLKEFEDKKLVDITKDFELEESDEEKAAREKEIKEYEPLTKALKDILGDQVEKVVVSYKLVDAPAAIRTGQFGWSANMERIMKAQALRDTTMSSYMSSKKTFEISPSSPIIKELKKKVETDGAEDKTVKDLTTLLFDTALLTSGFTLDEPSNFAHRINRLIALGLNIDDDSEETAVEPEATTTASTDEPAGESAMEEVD

[6] = target: Phospholipase A2 (Homo sapiens, UniProt P04054); assay: PLA2 enzyme inhibitors, dose response, counter-screen for ATG4B inhibitor project, biochemical, set 2 (AID 588586); format: functional
Sequence of Phospholipase A2 (P04054 whole entry): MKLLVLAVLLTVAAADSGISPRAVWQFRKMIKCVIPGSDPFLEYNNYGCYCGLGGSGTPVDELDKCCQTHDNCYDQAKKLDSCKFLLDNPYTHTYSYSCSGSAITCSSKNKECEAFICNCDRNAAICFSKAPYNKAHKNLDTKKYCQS

[7] = target: T2, Cysteine protease ATG4B (Homo sapiens, UniProt Q9Y4P1); assay: ATG4B protease inhibitors, dose response, biochemical, fluorescence, set 2 (AID 588584); format: functional
T2 sequence (Q9Y4P1 whole entry): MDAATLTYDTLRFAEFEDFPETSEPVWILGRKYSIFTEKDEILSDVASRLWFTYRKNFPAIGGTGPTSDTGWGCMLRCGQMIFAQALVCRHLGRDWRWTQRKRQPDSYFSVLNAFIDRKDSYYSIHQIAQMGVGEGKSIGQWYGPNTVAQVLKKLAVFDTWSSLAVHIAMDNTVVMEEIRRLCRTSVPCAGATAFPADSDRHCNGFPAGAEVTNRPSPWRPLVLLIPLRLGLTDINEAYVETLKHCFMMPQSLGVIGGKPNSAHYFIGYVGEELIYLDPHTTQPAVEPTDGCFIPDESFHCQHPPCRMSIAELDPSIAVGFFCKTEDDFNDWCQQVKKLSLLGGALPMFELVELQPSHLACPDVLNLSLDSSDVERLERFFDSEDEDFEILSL

[8] = target: Beta-galactosidase (Escherichia coli, UniProt Q8VNN2); assay: Dose response counterscreen for EBI2 assay utilizing the enzyme, b-galactosidase.; format: functional
Sequence of Beta-galactosidase (Q8VNN2 whole entry): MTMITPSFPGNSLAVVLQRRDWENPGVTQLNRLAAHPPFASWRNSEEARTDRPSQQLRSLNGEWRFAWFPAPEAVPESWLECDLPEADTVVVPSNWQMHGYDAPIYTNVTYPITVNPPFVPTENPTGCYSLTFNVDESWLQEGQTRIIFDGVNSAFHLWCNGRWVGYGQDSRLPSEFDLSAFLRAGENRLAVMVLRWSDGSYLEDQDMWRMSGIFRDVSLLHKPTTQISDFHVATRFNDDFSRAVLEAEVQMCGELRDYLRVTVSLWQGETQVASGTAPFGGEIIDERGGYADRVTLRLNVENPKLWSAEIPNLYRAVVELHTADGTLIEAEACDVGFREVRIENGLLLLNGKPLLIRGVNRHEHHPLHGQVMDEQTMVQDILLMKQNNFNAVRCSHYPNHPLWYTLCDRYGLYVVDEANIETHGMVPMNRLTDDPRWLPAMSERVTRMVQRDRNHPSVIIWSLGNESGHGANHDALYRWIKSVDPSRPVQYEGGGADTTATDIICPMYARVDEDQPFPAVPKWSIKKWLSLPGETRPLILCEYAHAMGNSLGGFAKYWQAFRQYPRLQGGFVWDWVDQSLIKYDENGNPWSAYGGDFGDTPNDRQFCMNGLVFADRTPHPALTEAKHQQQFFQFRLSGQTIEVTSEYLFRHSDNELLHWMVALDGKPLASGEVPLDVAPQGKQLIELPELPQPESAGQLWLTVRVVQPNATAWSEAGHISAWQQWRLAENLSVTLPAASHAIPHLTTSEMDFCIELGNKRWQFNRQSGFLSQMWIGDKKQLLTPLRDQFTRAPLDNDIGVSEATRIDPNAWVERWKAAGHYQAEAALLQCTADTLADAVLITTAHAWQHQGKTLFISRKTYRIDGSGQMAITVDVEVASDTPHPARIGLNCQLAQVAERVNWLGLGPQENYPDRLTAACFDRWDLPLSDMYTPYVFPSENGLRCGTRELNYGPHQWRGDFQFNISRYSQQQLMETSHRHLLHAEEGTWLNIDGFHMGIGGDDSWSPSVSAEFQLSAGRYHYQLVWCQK

[9] = target: Intestinal-type alkaline phosphatase (Mus musculus, UniProt P24822); assay: PubChem AID 488874; format: functional
Sequence of Intestinal-type alkaline phosphatase (Mus musculus, UniProt P24822) (P24822 whole entry): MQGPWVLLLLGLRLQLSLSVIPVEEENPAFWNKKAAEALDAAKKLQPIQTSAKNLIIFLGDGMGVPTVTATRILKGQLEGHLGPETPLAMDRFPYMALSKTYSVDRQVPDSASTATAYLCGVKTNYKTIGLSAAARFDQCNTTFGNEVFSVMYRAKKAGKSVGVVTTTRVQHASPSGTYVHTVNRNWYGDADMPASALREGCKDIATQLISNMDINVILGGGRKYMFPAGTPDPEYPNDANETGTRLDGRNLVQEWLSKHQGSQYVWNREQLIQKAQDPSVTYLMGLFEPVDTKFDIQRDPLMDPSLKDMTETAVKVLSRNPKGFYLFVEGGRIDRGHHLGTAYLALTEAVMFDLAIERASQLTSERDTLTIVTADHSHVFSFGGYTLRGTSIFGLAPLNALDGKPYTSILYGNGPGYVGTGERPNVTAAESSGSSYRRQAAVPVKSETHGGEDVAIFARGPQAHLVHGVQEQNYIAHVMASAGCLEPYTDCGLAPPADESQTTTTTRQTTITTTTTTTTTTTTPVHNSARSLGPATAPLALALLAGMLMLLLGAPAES

[10] = target: T3, Intestinal-type alkaline phosphatase (Homo sapiens, UniProt P09923); assay: human intestinal alkaline phosphatase activators, dose response, biochemical, luminescence, uHTS hits (AID 463120); format: functional
T3 sequence (P09923 whole entry): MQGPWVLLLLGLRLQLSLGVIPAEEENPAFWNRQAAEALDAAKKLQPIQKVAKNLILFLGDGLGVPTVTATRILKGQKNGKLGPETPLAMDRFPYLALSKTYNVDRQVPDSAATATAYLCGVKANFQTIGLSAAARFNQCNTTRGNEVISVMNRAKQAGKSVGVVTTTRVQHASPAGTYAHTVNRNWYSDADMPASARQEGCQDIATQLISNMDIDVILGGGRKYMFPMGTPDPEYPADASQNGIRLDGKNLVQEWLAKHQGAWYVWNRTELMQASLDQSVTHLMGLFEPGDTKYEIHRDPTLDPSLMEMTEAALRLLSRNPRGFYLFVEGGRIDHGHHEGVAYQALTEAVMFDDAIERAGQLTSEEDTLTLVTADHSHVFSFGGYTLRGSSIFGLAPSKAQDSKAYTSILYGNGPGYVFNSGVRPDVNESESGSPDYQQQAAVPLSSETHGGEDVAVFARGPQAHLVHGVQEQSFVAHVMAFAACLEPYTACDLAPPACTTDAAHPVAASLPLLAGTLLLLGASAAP

[11] = target: T3, Intestinal-type alkaline phosphatase; assay: human IAP activators, dose response, biochemical, luminescent, uHTS hits, set 2 (AID 488817); format: functional;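 note: potency of activators that raise enzyme activity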
[12] = target: T4, Alkaline phosphatase, tissue-nonspecific isozyme (Homo sapiens, UniProt P05186); assay: TNAP enzyme activators, dose response, selectivity assay for human IAP activator project, biochemical, TNAP isozyme, human IAP uHTS hits (AID 488886); format: functional;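 note: potency of compounds raising TNAP activity as a selectivity check on IAP activators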
T4 sequence (P05186 whole entry): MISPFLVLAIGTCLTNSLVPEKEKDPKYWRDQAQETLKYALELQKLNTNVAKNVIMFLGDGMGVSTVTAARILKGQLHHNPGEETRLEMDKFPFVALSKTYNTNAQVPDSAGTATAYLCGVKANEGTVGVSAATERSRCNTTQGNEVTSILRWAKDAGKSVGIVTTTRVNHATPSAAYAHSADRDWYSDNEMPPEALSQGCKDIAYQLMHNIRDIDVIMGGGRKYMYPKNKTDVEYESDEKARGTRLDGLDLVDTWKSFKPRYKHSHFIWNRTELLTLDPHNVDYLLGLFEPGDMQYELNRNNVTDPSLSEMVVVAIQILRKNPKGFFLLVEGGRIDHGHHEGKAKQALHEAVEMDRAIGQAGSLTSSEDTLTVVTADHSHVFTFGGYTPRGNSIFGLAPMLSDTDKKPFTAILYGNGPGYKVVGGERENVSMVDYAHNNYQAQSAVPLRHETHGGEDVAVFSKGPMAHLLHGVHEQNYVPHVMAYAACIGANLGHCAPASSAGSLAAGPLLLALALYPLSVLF

[13] = target: T3, Intestinal-type alkaline phosphatase; assay: human IAP inhibitors, dose response, biochemical, luminescent, uHTS hits, set 2 (AID 488793); format: functional
[14] = target: T3, Intestinal-type alkaline phosphatase; assay: Dose Response confirmation of uHTS hits from a small molecule inhibitors of human intestinal alkaline phosphatase via a luminescent assay. [Related pubchem assays (depositor defined):AID2544, AID2574]; format: functional
[15] = target: T4, Alkaline phosphatase, tissue-nonspecific isozyme; assay: inhibition of tissue-nonspecific alkaline phosphatase – biochemical, dose response (AID 488882); format: functional
[16] = inhibitors of firefly luciferase expression or activity, dose response, H4 neuroglioma cells, luminescence (AID 1990); format: functional, cell-based
[17] = target: T5, RNA-binding protein pos-1 (Caenorhabditis elegans, UniProt G5EF15); assay: inhibitors of POS-1/mex-3 RNA binding, dose response, biochemical, fluorescence polarization (AID 1964);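 note: purified POS-1 fused to maltose binding protein made in E. coli; potency of compounds blocking POS-1 binding to fluorescent RNA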
T5 sequence (G5EF15 whole entry): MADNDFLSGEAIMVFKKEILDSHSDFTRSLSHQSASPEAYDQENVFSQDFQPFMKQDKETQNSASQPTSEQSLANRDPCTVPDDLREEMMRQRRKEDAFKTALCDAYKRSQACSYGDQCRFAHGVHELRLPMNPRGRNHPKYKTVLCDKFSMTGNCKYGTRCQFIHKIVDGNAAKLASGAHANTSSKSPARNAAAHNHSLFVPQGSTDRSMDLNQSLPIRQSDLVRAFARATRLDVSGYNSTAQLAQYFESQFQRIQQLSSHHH

[18] = Luminescence Cell-Based Dose Response HTS to Identify Inhibitors of 5'UTR Stem-Loop Driven Prion Protein mRNA Translation in H4 Neuroglioblastoma Cells. [Related pubchem assays: 1827 (Project Summary), 1813 (Primary HTS)]; format: functional
[19] = target: T6, Zinc finger protein mex-5 (Caenorhabditis elegans, UniProt Q9XUB2); assay: MEX-5/TCR-2 RNA interaction inhibitors, dose response, biochemical, C. elegans, fluorescence polarization (AID 1960)
T6 sequence (Q9XUB2 whole entry): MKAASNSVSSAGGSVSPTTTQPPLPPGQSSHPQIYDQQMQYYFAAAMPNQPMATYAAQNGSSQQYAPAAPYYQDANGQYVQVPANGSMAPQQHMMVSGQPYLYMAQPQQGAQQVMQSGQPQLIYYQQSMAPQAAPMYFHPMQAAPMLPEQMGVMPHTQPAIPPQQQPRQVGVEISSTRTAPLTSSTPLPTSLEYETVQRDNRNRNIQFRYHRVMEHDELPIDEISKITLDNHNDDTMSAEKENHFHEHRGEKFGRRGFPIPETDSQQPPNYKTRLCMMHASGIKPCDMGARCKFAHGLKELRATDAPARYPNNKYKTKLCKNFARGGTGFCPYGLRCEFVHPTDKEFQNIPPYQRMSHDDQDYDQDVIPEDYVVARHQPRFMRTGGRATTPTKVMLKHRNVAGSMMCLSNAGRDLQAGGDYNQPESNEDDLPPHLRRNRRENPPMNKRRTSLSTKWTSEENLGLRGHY

[20] = target: T7, Heat shock factor protein 1 (Mus musculus, UniProt P38532); assay: inhibition of MG132-induced HSE-luciferase signal, confirmation, cell-based, NIH3T3, luminescence, dose retest (AID 2382); format: functional;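 note: NIH3T3 fibroblasts with HSF1-driven luciferase reporter stressed by proteasome inhibitor MG132; luminescence from HSF1-driven luciferase expression after 8 hours of MG132 stress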
T7 sequence (P38532 whole entry): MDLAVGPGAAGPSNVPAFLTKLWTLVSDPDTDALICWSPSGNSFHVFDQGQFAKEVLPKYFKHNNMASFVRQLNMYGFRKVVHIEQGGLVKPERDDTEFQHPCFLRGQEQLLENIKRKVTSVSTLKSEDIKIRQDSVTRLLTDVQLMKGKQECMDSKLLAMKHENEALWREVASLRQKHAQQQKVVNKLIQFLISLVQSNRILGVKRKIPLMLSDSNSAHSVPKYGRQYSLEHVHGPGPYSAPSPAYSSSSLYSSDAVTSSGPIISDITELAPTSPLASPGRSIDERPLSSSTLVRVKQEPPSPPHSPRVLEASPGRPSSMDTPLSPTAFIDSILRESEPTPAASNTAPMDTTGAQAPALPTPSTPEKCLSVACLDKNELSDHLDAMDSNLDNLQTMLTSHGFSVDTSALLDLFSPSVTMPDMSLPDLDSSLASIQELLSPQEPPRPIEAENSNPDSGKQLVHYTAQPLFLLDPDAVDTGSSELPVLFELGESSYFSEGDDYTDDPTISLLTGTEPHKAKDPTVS

[21] = inhibitors of SNCA 5'UTR-driven reporter translation, confirmation, H4 neuroglioma cells, luminescence (AID 1988); format: functional, cell-based
[22] = target: Exodeoxyribonuclease V (Escherichia coli (strain K12), UniProt P04993+P07648+P08394); assay: E. coli RecBCD inhibitors, dose response, counter-screen for AddAB inhibitor project, absorbance, V66 E. coli, mutant T4 phage (AID 492957); format: functional, cell-based, Escherichia coli str. K-12 substr. MG1655
[23] = Counterscreen for AddAB inhibitors: absorbance-based bacterial cell-based high throughput dose response assay for inhibitors of bacterial viability. [Related pubchem assays (depositor defined):AID435030, AID449728, AID449731, AID488942, AID488955, AID488956]; format: functional
[24] = test system: INS1; assay: beta cell apoptosis inhibitors, cytokine rescue, dose response, luminescence, retest (AID 449756); format: functional, cell-based; conditions: Rattus norvegicus;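 note: cell death triggered by IL-1 beta plus TNF-alpha plus IFN-gamma mixture; protective hits raise ATP signal compared with cytokine alone wells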

COC(=O)Cn1nc(-c2ccccc2)c2ccccc21
EC50 [1]: > 150 µM (inactive) | EC50 [2]: 0.81 µM (active) | EC50 [3]: > 180 µM (inactive) | AC50 [4]: 1.15 µM (active) | EC50 [5]: 33.9 µM (active)

Clc1ccc(-c2nnc(CSc3nnc(-c4cccs4)n3Cc3ccccc3)o2)cc1
IC50 [6]: 35.1 µM (inactive) | IC50 [7]: 37.3 µM (inactive) | IC50 [8]: > 80 µM (inactive)

COc1ccc(C2=NN(C3=NN=C(N)Cc4ncnn43)C(O)(C(F)(F)F)C2)cc1 (configuration not stated)
IC50 [9]: 41.2 µM (active) | EC50 [10]: 7.5 µM (active) | EC50 [11]: 13.3 µM (active) | EC50 [12]: 14.1 µM (active)

CCOc1cc(/C=C2/C(=O)ON=C2C)cc(Br)c1O
IC50 [9]: 33.1 µM (active) | IC50 [13]: 35.8 µM (active) | IC50 [14]: 19.3 µM (inactive) | IC50 [15]: 38.1 µM (active)

CCCNC(=O)c1ccc2c(O)c(O)c(-c3cccc(Br)c3)nc2c1
EC50 [1]: 15.6 µM (active) | EC50 [16]: 3.04 µM (active) | EC50 [17]: 1.6 µM (active) | EC50 [18]: 4.83 µM (active) | EC50 [19]: 2.73 µM (active) | EC50 [20]: > 195 µM (not active) | EC50 [21]: 3.4 µM (active) | EC50 [2]: 2.09 µM (active) | IC50 [22]: > 119 µM (inactive) | IC50 [23]: > 119 µM (inactive) | AC50 [24]: 5.4 µM (active)
